From a melting point compilation (Tetko et al.; mined from patent text by program, amines drawn as free bases though some values may be those of a salt) come the findings set out here.

A value given as a limit tells only on which side of the number the result lay.

For orientation: melting point means the temperature of the solid-liquid transition. `CS(=O)(=O)c1ccc2c(c1)C(=O)CC1(CCN(C(=O)c3ccccc3)CC1)O2` returned a melting point of 155 to 157 °C. The same measure for `O=C(CCCCCN1CCN(c2ccc3c(c2)CCCC3)CC1)N1Cc2ccccc2C1`: 123 °C; for `OCC(CO)OCn1c(Cl)nc2c(Cl)c(Cl)c(Cl)c(Cl)c21`: 155 °C; for `Cc1cc(O)c(S(=O)(=O)Cc2ccc(Cl)c(Cl)c2)c(=O)o1`: 144 to 145 °C.

As to `CCCCN(CCCC)C(=O)CC1(c2ccc(OCOC)cc2)NCC(c2ccc3c(c2)OCO3)C1C(=O)O` (stereo unspecified), the melting point lay within 48 to 49 °C. Turning to `COc1cc(OC)cc(C(=O)N2CCN(C(=O)C3=Cc4cc(OC)c(OC)cc4CC3)CC2)c1`, the melting point fell in the range of 166 to 167 °C. In turn, `CC12CCC3C(CCC4CC(F)CCC43C)C1CCC2=O` (stereo unspecified) gave a melting point of 126 to 127 °C. The molecule `CCCc1cc2c(=O)n3cc(C#N)ccc3nc2s1` displayed a melting point of 217 to 218 °C. In turn, `COc1cccc(-c2cc(Cl)cc3c2OC(CN)C3)c1OC` (stereo unspecified) showed a melting point of 120 to 122 °C. Next, `Nc1c(Cl)cc(Nc2ncnc3cnc(N[C@H]4CC[C@H](C(=O)N5CCOCC5)CC4)nc23)cc1Cl`: 204 to 207 °C; `COc1ccc(-c2cc(O)ccc2-c2ncnc(-c3ccccc3)n2)cc1`: 177 to 178 °C. The same measure for `COC(=O)/C=C/C=C(\C)c1ccc(OC)cc1`: 84 to 86 °C; for `Cc1c(-c2cccc(C(F)(F)F)c2F)c2cccc(Cl)c2n1CCCNS(C)(=O)=O`: 168 °C; for `CC(=O)OCC1OC(OC(C)=O)C(O)C(OC(C)=O)C1OC(C)=O` (stereo unspecified): 163 to 165 °C. The same measure for `O=C(O)CCc1ccc(OCc2nc(-c3ccccc3)c(-c3ccccc3)o2)cc1`: 124 to 127 °C; for `CC(=O)CCCC(=O)NC(CC(=O)C(=O)C(C)(Cc1c[nH]c2ccccc12)NC(=O)OC1C2CC3CC(C2)CC1C3)c1ccccc1` (stereo unspecified): 69 to 71 °C; for `O=c1[nH]sc2c1CCC2`: 177 to 179 °C. As for `COC(=O)Oc1c(OC)cc(OC)c2ccccc12`, the melting point was 128 to 129 °C. The same measure for `CCCCCCC1=CC(=C(Br)Br)NC1=O`: 103 to 105 °C; for `CN1CCN(c2ccc(Nc3cc(-c4cccc(N5CCc6c(cc7n6CCCC7)C5=O)c4CO)cn(C)c3=O)nc2)CC1`: 180 to 181 °C.

Consider `CCN(CCCCc1coc2ccccc12)C[C@H]1COc2ccc3nc(C)ccc3c2O1`, for which the melting point lay within 87 to 92 °C. For the molecule `CCCCc1nnc(S(=O)Cc2ccc([N+](=O)[O-])cc2)n1Cc1ccc(-c2ccccc2-c2nnn[nH]2)cc1` (stereo unspecified), the melting point was in the range of 222 to 223 °C. For the molecule `CCOC(=O)c1c(Cl)nc2cc(F)c(C)cc2c1CCl`, the melting point was > 250 °C. Molecule `CC(=O)CS(=O)(=O)c1ccc(O)cc1` gave a melting point of 118 to 121 °C. Next, `O=C(O)c1ccc2nc3c4nc5cc(C(=O)O)ccc5nc4c4nc5cc(C(=O)O)ccc5nc4c3nc2c1`: > 390 °C; `COc1ccc2c(c1)c(CC(=O)OCCNC(=O)C1=CN(C)C=CC1)c(C)n2C(=O)c1ccc(Cl)cc1`: 60 to 65 °C. The molecule `Cc1oc2c(NC(=O)c3c(Cl)ccc(Cl)c3C(=O)O)cccc2c1C` yielded a melting point of 186 to 188 °C. Consider `COc1ccc(C(OC(C)=O)c2sccc2C=O)cc1OC` (stereo unspecified), for which the melting point was in the range of 91 to 92 °C. Next, `O=C(CCCc1ccccc1)OCCCCCCCCCCCCNCC(O)c1ccccc1` (stereo unspecified): 73 to 74 °C. Next, `O=C(O)C(Cc1ccc(OCCn2c(-c3ccccc3)nc3ccccc32)cc1)n1cccc1` (stereo unspecified): 210 to 212 °C; `NC(=O)c1cccc2c1c1c(OCC(=O)O)ccc(Cl)c1n2Cc1ccccc1`: 240 to 242 °C.

Molecule `CC(=O)c1ccc(C2CC(C)(C)CC(C)(C)C2)cc1` returned a melting point of 54 °C. As for `CNC(=O)NCCSCc1csc(CN(C)C)n1`, the melting point was 56 to 59 °C. The same measure for `CC(=O)NCCCCCC(=O)Nc1ncccc1C(=O)c1ccc(Cl)cc1`: 117 to 119 °C; for `C=CCc1cc(COC(=O)C(C)(C)C)ccc1C#CC1(O)CN2CCC1CC2` (stereo unspecified): 73 °C. The same measure for `CCc1ccc2c(c1)[C@@H](N1CCCC1=O)[C@H](O)C(C)(C)O2` (relative stereo): 154 to 163 °C; for `CC(C)CN(C)C1=NS(=O)(=O)c2cccc(Cl)c21`: 160 to 162 °C; for `N#CCCC(CCC(=O)O)(c1ccccc1)c1ccccc1`: 119 to 120 °C. Consider `C#Cc1cc2nc(O)c(O)nc2cc1[N+](=O)[O-]`, for which the melting point was > 300 °C. In turn, `O=[N+]([O-])c1ccc2c(c1)CC(O)c1ccccc1S2` (stereo unspecified) gave a melting point of 144 to 146 °C. As to `CC(=O)SCC(C)C(=O)N(CC(=O)O)Cc1ccco1` (stereo unspecified), the melting point lay within 140 to 141 °C. `Cc1csc(C(=O)C(F)(F)F)n1` yielded a melting point of 77 to 81 °C.

On to `O=C(O)c1ccc(NCCOc2ccc(Br)cc2)cc1`, for which the melting point lay within 190 to 192 °C. Next, `COc1cc(OC)c(-c2ccc(C(=O)O)s2)cc1/C=C/C(=O)c1ccc(C(=O)O)cc1`: > 260 °C.

`N#Cc1ccsc1C1=CC(=O)Nc2cc(-c3ccc(F)cc3)ccc2N1` had a melting point of 239 to 240 °C. Take `CN1CCc2ccc(OCCCCN3CCN(c4cccc(Cl)c4Cl)CC3)cc2NC1=O`: the melting point lay within 139 to 140 °C. Next, `CC1CN(c2ccc([N+](=O)[O-])nc2)C1`: 141 to 143 °C; `O=C(N[C@H]1CC[C@H](CCN2CCN(c3nccc4c3CCO4)CC2)CC1)c1ccc(F)cc1`: 210 °C. Next, `CC(C)(C)c1ccc(CCN2C(=O)COc3ccc(C=C4SC(=S)NC4=O)cc32)cc1`: 283 to 285 °C; `CCOC(=O)N1CCN2c3ccccc3Cc3ccccc3C2C1` (stereo unspecified): 108 to 110 °C. For the molecule `CS(=O)(=O)N(c1cccc(C(=O)NCc2nc[nH]n2)c1)C1CN(C(c2ccc(Cl)cc2)c2ccc(Cl)cc2)C1`, the melting point turned out to be 210 °C. The same measure for `Nc1ccc(Nc2ccc([N+](=O)[O-])cc2S(=O)(=O)CCO)cc1`: 147 to 149 °C; for `CC(C)c1cc(C=CC(=O)Nc2ccc(C(=O)O)cc2)oc1C(C)C`: 131 to 133 °C. The molecule `O=C(O)CC1(CCCCCCCCCCCC2(C(=O)O)CC2)CC1` showed a melting point of 75.3 to 78.9 °C.

In turn, `Cc1ccc(N2C(=O)c3ccccc3C2=O)c(Cl)c1Cl` returned a melting point of 109 °C. Turning to `N=CN1C(C(=O)NN)C(Sc2ccccc2)=CC(=O)N1c1ccccc1` (stereo unspecified), the melting point fell in the range of 236 to 238 °C. The same measure for `CCCN(Cc1cccc(-c2noc(C)n2)c1)C(=O)Cc1ccc(-c2ccccc2S(=O)(=O)NC(C)(C)C)cc1`: 132 to 133 °C; for `CN(Cc1cccc2c1CN(C1CCC(=O)NC1=O)C2=O)C(=O)Nc1cc(Cl)cc(Cl)c1` (stereo unspecified): 285 to 287 °C; for `COc1cccc2c1C(C)(C)CC(O)(C(F)(F)F)C2Nc1cccc2c1cnn2C` (stereo unspecified): 172 to 174 °C. The same measure for `Cc1ccccc1C1(C#N)C2CC3CC(C2)CC1C3` (stereo unspecified): 80 to 81 °C. `O=C(CC(Cc1ccccc1)C(=O)O)c1ccc(F)cc1` (single isomer, unassigned; (+)) yielded a melting point of 88 °C. For `Cc1ccc(N2C(=O)NC(=O)C23CCN(Cc2ccccc2)CC3)cc1`, the melting point lay in the range of 291 to 293 °C.

`CCCc1c(OCCCCCOc2cc(OCCCC(=O)O)ccc2CCC(=O)O)ccc2c1OCCC2=O` returned a melting point of 163 to 164 °C. `OCCSc1nc2ccc(Cc3ccccc3)cc2[nH]1` displayed a melting point of 108 to 109 °C. The same measure for `O=C(Nc1cnc(-c2ccccc2)nc1C(=O)O)OCc1ccc(-c2ccccc2)cc1`: 173 °C; for `CCC(CC)(c1ccc(F)cc1)c1c[nH]c2c(NS(C)(=O)=O)cccc12`: 137 to 138 °C; for `COc1ccc(CCl)cc1OC`: 50 to 51 °C. The molecule `CC(=O)NCCOC1=C2C=C(S(N)(=O)=O)SC2S(=O)(=O)CC1` (stereo unspecified) had a melting point of 177 to 181 °C. Next, `CCCn1nc(C(C)C)c(C(=O)OC(C)OC(=O)OC2CCCCC2)c1Cc1ccc(-c2ccccc2-c2nnn[nH]2)cc1` (stereo unspecified): 79 to 83 °C. Next, `CCOC(=O)c1cc(-n2c(=O)[nH]c3c(c2=O)CCC3)ccc1Cl`: 178 to 180 °C; `CC[C@H](C)C(OCc1ccccc1)[C@H]1[C@H]([N+](=O)[O-])[C@H](c2ccccc2)N[C@@H]1C(=O)NCCC(=O)O` (stereo partly specified): 140 to 141 °C; `CN1CCC(=C2c3ccccc3COc3cc(Cl)ccc32)CC1`: 113 to 116 °C.

`Cc1nc(NC(=O)c2cnn3c(C(F)(F)F)cc(-c4ccc(C(F)(F)F)cc4)nc23)sc1S(=O)(=O)N1CCN(C)CC1` displayed a melting point of 273 °C. The same measure for `N#Cc1ccc(N2C[C@H](O)C[C@@H]2CO)c2ccccc12`: 146 to 147 °C; for `CCOC(=O)c1cc(S(=O)C(F)(F)C(F)F)c(-c2ccc(Cl)cc2)[nH]1` (stereo unspecified): 138 to 140 °C.

`CC(C)(C)OC(=O)c1ncn2c1[C@@H]1CCN1C(=O)c1c(Cl)cccc1-2` showed a melting point of 235 to 236 °C. The same measure for `NC(=NO)c1nn(-c2c(Cl)cc(C(F)(F)F)cc2Cl)c(N)c1S(=O)(=O)C(F)(F)F`: 205 to 206 °C.

In the case of `O=C(O)C1CCc2c(c3ccccc3n2C(=O)C2CCCCC2)C1` (stereo unspecified), the melting point lay in the range of 157 to 159 °C. Next, `N#CNC=NCc1ncc(C(F)(F)F)cc1Cl`: 106 to 108 °C; `CCOC(=O)C(C(=O)OCC)N(Cc1ccc(OC)cc1OC)C(=O)CCl`: 83 to 84 °C; `COc1cc2c(cc1O)CCN(C(=O)c1ccc(OC)c(OC)c1)C2`: 132 to 133 °C. For `CC1CC(=O)c2cc(Cl)c(F)cc2O1` (stereo unspecified), the melting point fell in the range of 88 to 90 °C. `COc1ccc(C(=O)NCc2ccccc2)c2c1oc1ccc(NC(C)=O)cc12` yielded a melting point of 264 to 265 °C.

The molecule `Cn1c2c(c3cccc(C(=O)O)c31)CCCC2` gave a melting point of 180 °C. Next, `CN(C(=O)Nc1ccc(Oc2ccccc2)cc1)C(Cl)C(Cl)(Cl)Cl` (stereo unspecified): 160 to 162 °C; `Ic1ccc(Cc2cc(I)c(Cc3ccc(I)cc3)cc2I)cc1`: 210 to 213 °C.
